In US20110172297A1, “Oxopiperdinyl And Pyranyl Sulfonamides and Pharmaceutical Compositions Thereof” (Pfizer Inc, priority 2008, published 2011) one finds EC50 data, which are given here for 15 compounds.

This experiment relates to AMPA receptors. As to the kind of experiment: AMPA ES cell FLIPR screen (AMPA Potentiator Assay). The class given is cell-based. As to conditions: murine ES cell-derived neurons, FLIPR Fluo-4 calcium signal, 32 uM AMPA challenge; values marked * are the geometric mean of 2-9 EC50 determinations. The method, then: The murine ES cell line used was E14-Sx1-16C, which has a targeted mutation in the Sox1 gene, a neuroectodermal marker, that offers G418 resistance when the Sox1 gene is expressed (Stem Cell Sciences). ES cells were maintained undifferentiated as previously described (Roach). […] ES cells were plated on gelatin-coated dishes (BD Biosciences), the media was changed daily and the cells were dissociated with 0.05% Trypsin EDTA (Invitrogen) every other day.
Embryoid Body Formation: Prior to embryoid body (EB) formation the ES cells were weaned from FBS onto Knockout Serum Replacement (KSR) (Invitrogen). To form EBs, ES cells were dissociated into a single cell suspension, then 3×10^6 cells were plated in bacteriology dishes (Nunc 4014) and grown as a suspension culture in NeuroEB-I medium that consisted of Knockout™ D-MEM (Invitrogen), supplemented with 10% KSR (Invitrogen), 0.2 mM L-Glutamine (Invitrogen), 0.1 mM MEM non-essential amino acids (Invitrogen), 30 μg/ml Gentamicin (Invitrogen), 1000 u/ml ESGRO (Chemicon), 0.1 mM 2-Mercaptoethanl (Sigma) and 150 ng/ml Transferrin (Invitrogen). The plates were put on a Stovall Belly Button shaker in an atmospheric oxygen incubator. The media was changed on day 2 of EB formation with NeuroEB-I and on day 4 with NeuroEB-II (NeuroEB-I plus 1 μg/ml mNoggin [R&D Systems]).
Neuronal Precursor Selection and Expansion: On day 5 of EB formation, EBs were dissociated with 0.05% Trypsin EDTA, and 4×10^6cells/100 mm dish were plated on Laminin coated tissue culture dishes in Neuroll-G418 medium that consisted of a base medium of a 1:1 mixture of D-MEM/F12 supplemented with N2 supplements and NeuroBasal Medium supplemented with B27 supplement and 0.1 mM L-Glutamine (all from Invitrogen). The base medium was then supplemented with 10 ng/ml bFGF (Invitrogen), 1 μg/ml mNoggin, 500 ng/ml SHH—N, 100 ng/ml FGF-8b (R&D Systems), 1 μg/ml Laminin and 200 μg/ml G418 (Invitrogen) for selection of neuronal precursors expressing Sox-1. The plates were put in an incubator that contained 2% Oxygen and were maintained in these conditions. During the 6-day selection period, the Neuroll media was changed daily. On day 6, the surviving neuronal precursor foci were dissociated with 0.05% Trypsin EDTA and the cells were plated at a density of 1.5×10^6 cells/100 mm Laminin coated dish in Neuroll-G418 medium. The cells were dissociated every other day for expansion, and prepared for Cryopreservation at passage 3 or 4. The crypreservation medium contained 50% KSR, 10% Dimethyl Sulfoxide (DMSO) (Sigma) and 40% Neurol-G418I medium. Neuronal precursors were crypreserved at a concentration of 4×10^6 cells/ml and 1 ml/cryovial in a controlled rate freezer overnight then transferred to an ultra-low freezer or liquid nitrogen for long-term storage.
Neuronal Differentiation: Cryopreserved ES cell-derived neuronal precursors were thawed by the rapid thaw method in a 37-degree water-bath. The cells were transferred from the cryovial to a 100 mm Laminin coated tissue culture dish that already contained Neuroll-G418 that had been equilibrated in a 2% Oxygen incubator. The media was changed with fresh Neuroll-G418 the next day. The cells were dissociated every other day as described above for expansion to generate enough cells to plate for the screen. For the screen, the cells were plated into 384-well poly-d-lysine coated tissue culture dishes (BD Biosciences) by the automated SelecT at a cell density of 6K cells/well in differentiation medium Neurolll that contained a 4:1 ratio of the NeuroBasalMedium/B27:D-MEM/F12/N2 supplemented with 1 μM cAMP (Sigma), 200 μM Ascorbic Acid (Sigma), 1 μg/ml Laminin (Invitrogen) and 10 ng/ml BDNF (R&D Systems). The plates were put in an incubator with 2% Oxygen and allowed to complete the differentiation process for 7 days. The cells could then be used over a 5-day period for the high throughput screen.
On the day of the assay, the FLIPR assay may be performed using the following methods: […]

Where only a bound is given, the exact number is not on record here.

As usually defined, the EC50 is the midpoint of the concentration-response curve. Turning to `CCOc1ccccc1-c1ccc([C@H]2CCOC[C@H]2NS(=O)(=O)C(C)C)cc1` [Example 62, N-[(3S,4R)-4-(2′-ethoxybiphenyl-4-yl)tetrahydro-2H-pyran-3-yl]propane-2-sulfonamide], the EC50 was over 31600 nM. Next, `CC(C)S(=O)(=O)N[C@@H]1CCC(=O)N[C@H]1c1ccc(-c2ccccc2C#N)cc1` [Example 52, N-[(2S,3R)-2-(2′-cyanobiphenyl-4-yl)-6-oxopiperidin-3-yl]propane-2-sulfonamide]: over 31600 nM; `CC(C)S(=O)(=O)N[C@@H]1COCC[C@H]1c1ccc(-c2ccccc2)cc1` [Example 15, N-[(3S,4S)-4-biphenyl-4-yltetrahydro-2H-pyran-3-yl]propane-2-sulfonamide]: over 31600 nM.

With `CC(C)S(=O)(=O)N[C@H]1CCOC[C@H]1c1ccc(-c2ccc(F)cc2C#N)cc1` [Example 24, N-[(3S,4S)-3-(2′-cyano-4′-fluorobiphenyl-4-yl)tetrahydro-2H-pyran-4-yl]propane-2-sulfonamide], the concentration giving a half-maximal response (EC50) stood at 378 nM. As for `CC(C)S(=O)(=O)N[C@H]1CCOC[C@@H]1c1ccc(-c2ccc(C#N)s2)cc1` [Example 41, N-{(3R,4S)-3-[4-(5-cyano-2-thienyl)phenyl]tetrahydro-2H-pyran-4-yl}propane-2-sulfonamide], the figure is 826 nM; as for `CC(C)S(=O)(=O)N[C@H]1COCC[C@@H]1c1ccc(-c2ccc(C#N)s2)cc1` [Example 20, N-{(3R,4R)-4-[4-(5-cyano-2-thienyl)phenyl]tetrahydro-2H-pyran-3-yl}propane-2-sulfonamide], 9790 nM; as for `CC(C)S(=O)(=O)N[C@@H]1COCC[C@@]1(O)c1ccc(-c2ccccc2)cc1` [Example 6, N-[(3R,4R)-4-biphenyl-4-yl-4-hydroxytetrahydro-2H-pyran-3-yl]propane-2-sulfonamide], over 31600 nM. For `CCOc1ccccc1-c1ccc([C@@H]2CCOC[C@H]2NS(=O)(=O)C(C)C)cc1` [Example 7, N-[(3S,4S)-4-(2′-ethoxybiphenyl-4-yl)tetrahydro-2H-pyran-3-yl]propane-2-sulfonamide], the EC50 was over 31600 nM.

`CC(C)S(=O)(=O)N[C@H]1COCC[C@H]1c1ccc(-c2ccc(C#N)s2)cc1` [Example 59, N-{(3R,4S)-4-[4-(5-cyano-2-thienyl)phenyl]tetrahydro-2H-pyran-3-yl}propane-2-sulfonamide]: the EC50 came out at 2100 nM. `CC(C)S(=O)(=O)N[C@H]1CCCO[C@@H]1c1ccc(-c2ccccc2C#N)cc1` [Example 46, N-[(2R,3S)-2-(2′-cyanobiphenyl-4-yl)tetrahydro-2H-pyran-3-yl]propane-2-sulfonamide]: the EC50 was found to be 1240 nM. Next, `CC(C)S(=O)(=O)N[C@H]1CCC(=O)N[C@@H]1c1ccc(-c2ccc(C#N)s2)cc1` [Example 53, N-{(2R,3S)-2-[4-(5-cyano-2-thienyl)phenyl]-6-oxopiperidin-3-yl}propane-2-sulfonamide]: 2360 nM; `CCOc1ccccc1-c1ccc([C@H]2COCC[C@@H]2NS(=O)(=O)C(C)C)cc1` [Example 34, N-[(3R,4S)-3-(2′-ethoxybiphenyl-4-yl)tetrahydro-2H-pyran-4-yl]propane-2-sulfonamide]: 220 nM; `CCOc1ccccc1-c1ccc([C@H]2OCCC[C@@H]2NS(=O)(=O)C(C)C)cc1` [Example 44, N-[(2R,3S)-2-(2′-ethoxybiphenyl-4-yl)tetrahydro-2H-pyran-3-yl]propane-2-sulfonamide]: 493 nM. Next, `CC(C)S(=O)(=O)N[C@@H]1CCOC[C@H]1c1ccc(-c2cccnc2)cc1` [Example 37, N-[(3S,4R)-3-(4-pyridin-3-ylphenyl)tetrahydro-2H-pyran-4-yl]propane-2-sulfonamide]: over 4670 nM; `CC(C)S(=O)(=O)N[C@H]1CCOC[C@H]1c1ccc(-c2ccc(C#N)cc2)cc1` [Example 29, N-[(3S,4S)-3-(4′-cyanobiphenyl-4-yl)tetrahydro-2H-pyran-4-yl]propane-2-sulfonamide]: 4040 nM.
